Patent publication US10710996B2, “Pyrido-azaheterecydic compound and preparation method and use thereof” (SHANGHAI INSTITUTE OF MATERIA MEDICA, CHINESE ACADEMY OF …, priority 2015, dated 2020)
Values joined by “and” are separate entries in the source; they are usually repeats but may differ in a detail not shown here. Equal values may be shown once. Read-outs that look alike come from different tables or passages of the source.

Assays:
c-Met kinase = molecular target: T1, c-Met kinase (Homo sapiens, UniProt P08581); test: Inhibitory effect on c-Met kinase activity at molecular level (ELISA); type: biochemical;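 also: recombinant c-Met kinase domain with 5 µM ATP, 1 h at 37 °C, substrate phosphorylation detected by anti-phosphotyrosine PY99 ELISA at 490 nm versus DMSO negative control, ATP-free wells as blank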
T1 construct: c-Met kinase domain recombinant protein diluted with 49 μL of the reaction buffer was added
T1 sequence (P08581 1078-1345 limits assumed): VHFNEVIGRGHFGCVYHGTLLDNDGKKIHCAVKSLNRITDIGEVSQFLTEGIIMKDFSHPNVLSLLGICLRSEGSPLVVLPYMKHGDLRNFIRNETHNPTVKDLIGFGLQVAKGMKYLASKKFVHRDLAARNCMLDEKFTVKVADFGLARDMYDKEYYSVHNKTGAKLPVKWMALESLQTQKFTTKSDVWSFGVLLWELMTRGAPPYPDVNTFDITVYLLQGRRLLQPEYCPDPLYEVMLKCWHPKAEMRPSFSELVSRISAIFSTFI
Experimental: Experiment for Preliminarily Evaluating the Inhibitory Effect on the Activity of Receptor Tyrosine Kinase c-Met at Molecular Level
After discarding the liquid in the wells, the plate was washed with T-PBS (0.1% Tween-20 in PBS) in an amount of 200 μL/well three times, each for 5 minutes. The ELISA plate was dried in an oven at 37° C. for 1-2 hours. 50 μl of adenosine triphosphate (ATP) solution diluted with reaction buffer (50 mM 4-hydroxyethylpiperazine ethanesulfonic acid (HEPES) pH 7.4, 50 mM MgCl2, 0.5 mM MnCl2, 0.2 mM Na3VO4, 1 mM dithiothreitol (DTT)) to a final concentration of 5 μM was added to each well. The compounds were diluted to an appropriate concentration with DMSO (1 μL/well) or a solution containing DMSO in a corresponding concentration (negative control well), and then c-Met kinase domain recombinant protein diluted with 49 μL of the reaction buffer was added therein to initiate the reaction, with two ATP-free control wells for each test. The plate was placed in a shaker (100 rpm) at 37° C. for reacting 1 hour, and washed with T-PBS three times. Primary antibody PY99 diluent was added in an amount of 100 μL/well to allow the reaction in a shaker at 37° C. for 0.5 hour, and then the plate was washed with T-PBS three times. Then the secondary antibody horseradish peroxidase labeled goat anti-mouse IgG diluent was added in an amount of 100 μL/well, and the plate was placed in a shaker at 37° C. for reacting 0.5 hour, and then washed with T-PBS three times. 2 mg/ml of o-phenylenediamine (OPD) coloring solution (diluted with 0.1 M citric acid-sodium citrate buffer (pH=5.4) containing 0.03% H2O2) was then added at 100 μL/well and reacted at 25° C. for 1-10 min with light blocked (ultrasound was required to dissolve OPD, the coloring solution was prepared when needed). The reaction was stopped by adding 2 M of H2SO4 in an amount of 50 μL/well, and a wavelength-adjustable microplate reader SPECTRA MAX 190 was read at 490 nm.
The inhibition rate of the sample was calculated by the following equation:

EBC-1 cells = test: Inhibition of c-Met-mediated EBC-1 cell proliferation (SRB staining); type: cell-based; conditions: Homo sapiens, 72 hours treatment
In short: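 MET-amplified EBC-1 NSCLC cells in log phase were seeded, cultured overnight, then exposed to compound in triplicate for 72 h. Growth was measured by TCA fixation, SRB staining and OD at 515 nm. IC50 reported as a range from the initial screening concentrations; experiment repeated twice.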

ALK = ALK (Homo sapiens, UniProt Q9UM73); test: Tyrosine kinase inhibition rate (ELISA), ALK; type: biochemical; conditions: read-out: Inhibtion rate (%) ALK
Chain of ALK (Q9UM73 19-1620, species assumed): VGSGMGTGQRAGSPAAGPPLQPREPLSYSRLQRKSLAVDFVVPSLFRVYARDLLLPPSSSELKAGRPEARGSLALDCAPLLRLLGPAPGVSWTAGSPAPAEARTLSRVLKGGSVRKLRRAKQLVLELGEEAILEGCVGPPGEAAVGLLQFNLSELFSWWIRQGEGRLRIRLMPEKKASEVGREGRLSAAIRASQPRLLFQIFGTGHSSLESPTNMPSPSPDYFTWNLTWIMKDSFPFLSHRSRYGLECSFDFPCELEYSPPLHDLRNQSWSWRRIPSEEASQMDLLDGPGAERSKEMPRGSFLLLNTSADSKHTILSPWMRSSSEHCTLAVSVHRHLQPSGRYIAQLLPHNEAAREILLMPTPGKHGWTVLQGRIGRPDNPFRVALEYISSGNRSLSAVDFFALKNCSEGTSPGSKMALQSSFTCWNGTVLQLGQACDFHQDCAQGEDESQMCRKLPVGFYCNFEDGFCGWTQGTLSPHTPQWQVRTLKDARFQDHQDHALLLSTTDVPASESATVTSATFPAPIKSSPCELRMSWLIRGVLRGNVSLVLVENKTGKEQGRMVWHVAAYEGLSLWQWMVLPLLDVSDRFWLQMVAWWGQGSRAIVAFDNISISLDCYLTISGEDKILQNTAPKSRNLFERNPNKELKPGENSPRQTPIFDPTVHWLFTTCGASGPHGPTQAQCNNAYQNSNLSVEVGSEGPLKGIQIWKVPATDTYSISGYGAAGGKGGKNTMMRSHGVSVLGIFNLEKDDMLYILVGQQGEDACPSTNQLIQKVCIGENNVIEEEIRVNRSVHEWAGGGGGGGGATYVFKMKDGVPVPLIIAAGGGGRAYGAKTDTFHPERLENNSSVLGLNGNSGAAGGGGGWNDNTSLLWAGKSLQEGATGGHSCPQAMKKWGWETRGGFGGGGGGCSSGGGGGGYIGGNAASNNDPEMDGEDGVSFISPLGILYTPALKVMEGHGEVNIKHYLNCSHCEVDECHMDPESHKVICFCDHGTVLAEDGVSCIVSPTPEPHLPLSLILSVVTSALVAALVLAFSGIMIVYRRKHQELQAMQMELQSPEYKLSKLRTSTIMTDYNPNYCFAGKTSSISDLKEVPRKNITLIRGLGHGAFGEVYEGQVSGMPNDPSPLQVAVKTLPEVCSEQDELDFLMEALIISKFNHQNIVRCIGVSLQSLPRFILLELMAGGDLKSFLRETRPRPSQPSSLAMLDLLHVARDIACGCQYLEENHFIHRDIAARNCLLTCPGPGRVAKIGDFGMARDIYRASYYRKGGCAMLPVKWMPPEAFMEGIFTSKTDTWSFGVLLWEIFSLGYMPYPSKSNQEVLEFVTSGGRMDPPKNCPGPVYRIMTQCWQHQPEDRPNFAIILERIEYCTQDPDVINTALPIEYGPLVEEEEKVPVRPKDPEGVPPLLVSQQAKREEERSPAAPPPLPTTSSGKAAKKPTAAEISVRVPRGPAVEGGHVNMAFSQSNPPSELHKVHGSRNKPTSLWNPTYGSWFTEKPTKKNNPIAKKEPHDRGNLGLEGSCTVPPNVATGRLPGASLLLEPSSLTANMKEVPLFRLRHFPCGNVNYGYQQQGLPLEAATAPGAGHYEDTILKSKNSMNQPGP

FGFR1 = FGFR1 (Homo sapiens, UniProt P11362); test: Tyrosine kinase inhibition rate (ELISA), FGFR1; type: biochemical; conditions: read-out: Inhibtion rate (%) FGFR1
Chain of FGFR1 (P11362 22-822, species assumed): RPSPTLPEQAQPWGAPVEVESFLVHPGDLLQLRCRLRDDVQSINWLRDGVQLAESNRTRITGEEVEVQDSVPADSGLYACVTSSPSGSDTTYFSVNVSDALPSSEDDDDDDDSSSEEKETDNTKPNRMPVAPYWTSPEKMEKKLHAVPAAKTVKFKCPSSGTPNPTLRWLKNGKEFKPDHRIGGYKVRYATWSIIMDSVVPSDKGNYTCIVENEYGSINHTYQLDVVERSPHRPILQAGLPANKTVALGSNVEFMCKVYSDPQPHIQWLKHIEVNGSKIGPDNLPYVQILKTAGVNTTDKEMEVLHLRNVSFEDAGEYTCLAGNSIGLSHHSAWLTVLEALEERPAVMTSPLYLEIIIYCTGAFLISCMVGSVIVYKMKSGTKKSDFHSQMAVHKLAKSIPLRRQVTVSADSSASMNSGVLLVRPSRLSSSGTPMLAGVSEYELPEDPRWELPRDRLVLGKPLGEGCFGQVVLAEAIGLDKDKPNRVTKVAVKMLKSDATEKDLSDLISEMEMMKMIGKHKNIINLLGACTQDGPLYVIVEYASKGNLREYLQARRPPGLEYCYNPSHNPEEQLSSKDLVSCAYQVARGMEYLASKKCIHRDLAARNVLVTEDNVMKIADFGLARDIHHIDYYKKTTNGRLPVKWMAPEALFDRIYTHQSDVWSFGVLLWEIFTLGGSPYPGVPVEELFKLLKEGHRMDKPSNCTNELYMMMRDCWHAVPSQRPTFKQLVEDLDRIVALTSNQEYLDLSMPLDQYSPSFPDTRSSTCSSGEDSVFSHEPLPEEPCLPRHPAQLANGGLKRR

Flt-1 = Flt-1 (Homo sapiens, UniProt P17948); test: Tyrosine kinase inhibition rate (ELISA), Flt-1; type: biochemical; conditions: read-out: Inhibtion rate (%) Flt-1
PDGFR-α = PDGFR-α (Homo sapiens, UniProt P16234); test: Tyrosine kinase inhibition rate (ELISA), PDGFR-α; type: biochemical; conditions: read-out: Inhibtion rate (%) PDGFR-α
PDGFR-β = PDGFR-β (Homo sapiens, UniProt P09619); test: Tyrosine kinase inhibition rate (ELISA), PDGFR-β; type: biochemical; conditions: read-out: Inhibtion rate (%) PDGFR-β
Chain of PDGFR-β (P09619 33-1106, species assumed): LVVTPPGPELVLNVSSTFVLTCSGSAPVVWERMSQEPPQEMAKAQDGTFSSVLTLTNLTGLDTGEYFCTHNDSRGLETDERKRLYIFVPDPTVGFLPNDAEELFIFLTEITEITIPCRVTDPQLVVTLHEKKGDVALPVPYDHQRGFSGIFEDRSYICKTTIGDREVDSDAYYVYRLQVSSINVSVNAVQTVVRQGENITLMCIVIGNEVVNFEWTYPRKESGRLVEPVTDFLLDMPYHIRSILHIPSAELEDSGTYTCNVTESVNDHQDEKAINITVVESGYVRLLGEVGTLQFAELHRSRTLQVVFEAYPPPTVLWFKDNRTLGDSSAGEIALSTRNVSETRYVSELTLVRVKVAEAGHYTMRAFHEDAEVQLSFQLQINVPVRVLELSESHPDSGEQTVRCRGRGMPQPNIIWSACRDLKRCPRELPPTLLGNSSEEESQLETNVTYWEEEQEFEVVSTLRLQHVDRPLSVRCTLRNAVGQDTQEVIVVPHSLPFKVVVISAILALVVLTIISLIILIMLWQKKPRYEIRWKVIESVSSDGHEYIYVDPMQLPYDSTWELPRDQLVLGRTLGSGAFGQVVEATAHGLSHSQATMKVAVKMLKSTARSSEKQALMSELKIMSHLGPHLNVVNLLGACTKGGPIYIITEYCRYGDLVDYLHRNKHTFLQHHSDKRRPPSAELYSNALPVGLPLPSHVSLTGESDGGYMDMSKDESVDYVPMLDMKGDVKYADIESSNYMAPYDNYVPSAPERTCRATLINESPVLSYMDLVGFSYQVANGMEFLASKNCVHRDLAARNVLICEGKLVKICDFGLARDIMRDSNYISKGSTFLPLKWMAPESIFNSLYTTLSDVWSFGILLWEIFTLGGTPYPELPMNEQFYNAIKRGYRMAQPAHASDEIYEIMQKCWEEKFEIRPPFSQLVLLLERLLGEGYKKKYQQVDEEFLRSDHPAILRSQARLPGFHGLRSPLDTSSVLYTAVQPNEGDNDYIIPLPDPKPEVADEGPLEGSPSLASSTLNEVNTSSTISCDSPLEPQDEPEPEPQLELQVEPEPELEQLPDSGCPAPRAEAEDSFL

RET = RET (Homo sapiens, UniProt P07949); test: Tyrosine kinase inhibition rate (ELISA), RET; type: biochemical; conditions: read-out: Inhibtion rate (%) RET
EGFR = EGFR (Homo sapiens, UniProt P00533); test: Tyrosine kinase inhibition rate (ELISA), EGFR; type: biochemical; conditions: read-out: Inhibtion rate (%) EGFR
ErbB4 = ErbB4 (Homo sapiens, UniProt Q15303); test: Tyrosine kinase inhibition rate (ELISA), ErbB4; type: biochemical; conditions: read-out: Inhibtion rate (%) ErbB4
c-Src = c-Src (Homo sapiens, UniProt P12931); test: Tyrosine kinase inhibition rate (ELISA), c-Src; type: biochemical; conditions: read-out: Inhibtion rate (%) c-Src
ABL = ABL (Homo sapiens, UniProt P00519); test: Tyrosine kinase inhibition rate (ELISA), ABL; type: biochemical; conditions: read-out: Inhibtion rate (%) ABL
Chain of ABL (P00519 whole entry, species assumed): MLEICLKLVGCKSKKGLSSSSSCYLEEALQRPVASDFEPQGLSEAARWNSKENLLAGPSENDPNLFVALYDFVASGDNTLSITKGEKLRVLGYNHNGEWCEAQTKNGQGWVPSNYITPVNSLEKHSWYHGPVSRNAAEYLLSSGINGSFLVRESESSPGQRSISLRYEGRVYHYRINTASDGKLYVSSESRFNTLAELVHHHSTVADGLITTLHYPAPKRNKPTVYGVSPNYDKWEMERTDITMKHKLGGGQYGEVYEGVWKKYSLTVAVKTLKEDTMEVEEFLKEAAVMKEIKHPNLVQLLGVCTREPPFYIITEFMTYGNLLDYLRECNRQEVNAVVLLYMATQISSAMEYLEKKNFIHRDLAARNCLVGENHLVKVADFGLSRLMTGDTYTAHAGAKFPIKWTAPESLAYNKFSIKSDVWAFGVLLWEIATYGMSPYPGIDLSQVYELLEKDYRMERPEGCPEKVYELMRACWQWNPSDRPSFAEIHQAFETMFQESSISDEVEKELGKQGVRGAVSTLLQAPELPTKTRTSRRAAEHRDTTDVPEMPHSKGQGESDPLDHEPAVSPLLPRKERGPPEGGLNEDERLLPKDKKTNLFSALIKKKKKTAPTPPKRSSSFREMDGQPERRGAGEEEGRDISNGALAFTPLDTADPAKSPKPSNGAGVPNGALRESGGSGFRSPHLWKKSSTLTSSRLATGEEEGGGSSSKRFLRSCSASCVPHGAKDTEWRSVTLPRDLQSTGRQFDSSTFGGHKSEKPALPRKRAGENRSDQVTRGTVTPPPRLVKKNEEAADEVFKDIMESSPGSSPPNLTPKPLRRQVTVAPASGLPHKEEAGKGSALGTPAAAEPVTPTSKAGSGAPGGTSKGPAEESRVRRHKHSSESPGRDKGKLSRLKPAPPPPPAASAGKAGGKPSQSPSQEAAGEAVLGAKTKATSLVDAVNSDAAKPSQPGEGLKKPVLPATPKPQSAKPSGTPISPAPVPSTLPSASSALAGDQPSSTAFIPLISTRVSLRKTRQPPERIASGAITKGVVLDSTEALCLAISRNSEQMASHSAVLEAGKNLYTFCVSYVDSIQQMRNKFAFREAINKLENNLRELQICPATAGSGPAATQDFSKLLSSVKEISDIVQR

EPH-A2 = EPH-A2 (Homo sapiens, UniProt P29317); test: Tyrosine kinase inhibition rate (ELISA), EPH-A2; type: biochemical; conditions: read-out: Inhibtion rate (%) EPH-A2
IGF1R = IGF1R (Homo sapiens, UniProt P08069); test: Tyrosine kinase inhibition rate (ELISA), IGF1R; type: biochemical; conditions: read-out: Inhibtion rate (%) IGF1R
[1] = Pharmacokinetic test in rats; type: in vivo, Sprague-Dawley rats; conditions: rat
Experimental: 14 male Sprague-Dawley rats, weigh 200-220 g, were randomly divided into 4 groups with 4/3 in each group. The rats were intragastrically and intravenously administered with compound 7S and 8S respectively. The compounds were dissolved in normal saline containing 5% of DMSO and solubilized with 5% of tween-80 (Tween 80), and the final concentration of the sample was 1 mg/ml.
The rats were fasted 12 h before the test, free drinking water. They were fed 2 h after administration.
gavage administration: 0.25 h, 0.5 h, 1.0 h, 2.0 h, 3.0 h, 4.0 h, 6.0 h, 8.0 h and 24 h after administration;
intravenous administration: 5 min, 0.25 h, 0.5 h, 1.0 h, 2.0 h, 4.0 h, 6.0 h, 8.0 h and 24 h after administration;
0.3 ml venous blood was collected from the retrobulbar venous plexus of rats at the above time point, and placed in a heparinized tube and centrifuged at 11000 rpm for 5 min. The plasma was separated and frozen in a refrigerator at −20° C.
The concentrations of the compounds in rat plasma were measured by LC/MS/MS.
Pharmacokinetic parameters after administration were calculated using the non-compartmental model of the Phoenix 1.3 software (Pharsight, U.S.A.).
Peak concentration Cmax and peak time Tmax were the measured values;
The area under the curve of the drug concentration vs. time AUC0-t value: calculated according to trapezoidal rule; AUC0-∞=AUC0-t+Ct/ke, Ct is the plasma concentration at the last measurable time point, ke is the elimination rate constant;
Elimination half-life t1/2=0.693/ke;
Average retention time MRT=AUMC/AUC.
Clearance rate CL=D/AUC0-∞;
Volume of distribution at steady state Vss=CL×MRT

[2] = test system: human lung cancer EBC-1 xenograft tumor; test: Growth inhibition of subcutaneous xenograft tumor of human lung cancer EBC-1 in nude mice; type: in vivo; conditions: for RTV (mean ± SD) / T/C (%) / TV (mm^3, mean ± SD) d21 / Weight (g) d21: d21
Experimental: EBC-1 cells were subcutaneously inoculated into the armpit on the right side of the nude mice in an amount of 5×10^6/mouse respectively to form xenograft tumor, which were then passaged in nude mice for three generations. Tumor tissue that was growing vigorously was cut into about 1.5 mm^3 under sterile conditions, and subcutaneously inoculated into the armpit on the right side of the nude mice, and the diameter of the xenograft tumor was measured with a vernier caliper. The diameter of the subcutaneous xenograft tumor in nude mice was measured with a vernier caliper. […] The diameter of xenograft tumor was measured twice a week and the body weight of mice was weighed during the whole experiment. The tumor volume (TV) was calculated by the following equation: TV=½×a×b^2, wherein a and b represent the length and width, respectively. The relative tumor volume (RTV) was calculated based on the measured results, and the calculation equation thereof is: RTV=Vt/V0, wherein V0 is the tumor volume measured when the mice were divided in different cages and administered (i.e., d0) and Vt is the tumor volume measured each time.

[3] = male, Sprague-Dawley, plasma, po, intragastric (gavage) 10 mg/kg, mean
[4] = male, Sprague-Dawley, plasma, intravenous 5 mg/kg, mean
[5] = 100 mg/kg oral once a day for 21 days

Question: Which results are given for `O=C(Nc1ccc(F)cc1)C1(C(=O)Nc2ccc(Oc3ccnc4cc(OCCN5CCOCC5)ncc34)c(F)c2)CC1` [Compound 7S, N-(3-fluoro-4-((7-(2-morpholinoethoxy)-1,6-naphthyridin-4-yl)oxy)phenyl)-N-(4-fluorophenyl)cyclopropyl-1,1-dicarboxamide]?
Answer: IC50 (c-Met kinase): 1 to 10 nM; inhibition at 1 µM (c-Met kinase; 1 μM, read-out: Inhibtion rate (%) c-Met): 100%; IC50 (EBC-1 cells): 10 to 100 nM; inhibition at 1 µM (ALK): 21.7%; inhibition at 1 µM (FGFR1): 36.3%; inhibition at 1 µM (Flt-1): 70.3%; inhibition at 1 µM (PDGFR-α): 55.6%; inhibition at 1 µM (PDGFR-β): 48.7%; inhibition at 1 µM (RET): 78.2%; inhibition at 1 µM (EGFR): 8.6%; inhibition at 1 µM (ErbB4): 6.6%; inhibition at 1 µM (c-Src): 55.9%; inhibition at 1 µM (ABL): 23.3%; inhibition at 1 µM (EPH-A2): 87.9%; inhibition at 1 µM (IGF1R): 18.1%; bioavailability ([1]; male, Sprague-Dawley, plasma, oral, gavage 10 mg/kg vs intravenous 5 mg/kg, read-out: F (absolute bioavailability)): 51.8%; AUC(0-inf) [1, 3]: 16700 ng·h/mL; AUC(0-t) [1, 3]: 16500 ng·h/mL; Cmax [1, 3]: 5450 ng/mL; Tmax [1, 3]: 1.75 h; half-life [1, 3]: 99.6 min; AUC(0-inf) [1, 4]: 16000 ng·h/mL; AUC(0-t) [1, 4]: 15900 ng·h/mL; clearance [1, 4]: 5.23 mL/min/kg; half-life [1, 4]: 60.1 min; Vd ([1]; male, Sprague-Dawley, plasma, intravenous 5 mg/kg, mean, read-out: Vss): 0.346 L/kg; MRT ([1]; male, Sprague-Dawley, plasma, iv, 5 mg/kg, intravenous 5 mg/kg, mean, read-out: MRT): 1.11 h; MRT ([1]; male, Sprague-Dawley, plasma, po, 10 mg/kg, intragastric (gavage) 10 mg/kg, mean, read-out: MRT): 2.6 h; MRT ([1]; intragastric (gavage) 10 mg/kg, mean, 10 mg/kg): 2.653 h; TV (mm^3, mean ± SD) d0 ([2]; 10 mg/kg qd/21 po): 128 ± 34 mm^3; Weight (g) d0 ([2]; 10 mg/kg qd/21 po): 18.2 g; RTV (mean ± SD) ([2]; 10 mg/kg qd/21 po): 6.09 ± 2.17; T/C (%) ([2]; 10 mg/kg qd/21 po): 46.24%; TV (mm^3, mean ± SD) d21 ([2]; 10 mg/kg qd/21 po): 764 ± 258 mm^3; Weight (g) d21 ([2]; 10 mg/kg qd/21 po): 22.0 g; tumor volume growth inhibition rate GI [2, 5]: 96.5%; tumor weight inhibition rate [2, 5]: 86.9%; TV (mm^3, mean ± SD) d0 ([2]; 100 mg/kg qd/21 po): 128 ± 39 mm^3; Weight (g) d0 ([2]; 100 mg/kg qd/21 po): 17.4 g; RTV (mean ± SD) ([2]; 100 mg/kg qd/21 po): 1.26 ± 0.85; T/C (%) ([2]; 100 mg/kg qd/21 po): 9.58% and 9.5%; TV (mm^3, mean ± SD) d21 ([2]; 100 mg/kg qd/21 po): 181 ± 156 mm^3; Weight (g) d21 ([2]; 100 mg/kg qd/21 po): 20.7 g; safety in vivo ([2]; within effective dose): safe and non-toxic within effective dose
